In patent US8278337B2, “Substituted pyridines that are JNK inhibitors” (Merck Sharp & Dohme, priority 2006, dated 2012) one finds IC50 data, which are given here for 27 compounds.

“And” between values parts separate entries of the source, which are not always exact repeats. Equal entries are not always repeated. Where two headings read alike, the source gives them in different places.

The target of this assay is JNK1 (Homo sapiens, UniProt P45983). The assay can be described thus: DELFIA kinase assay, JNK1. The format is biochemical. The procedure, abridged:
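Enzyme (2 nM JNK1) was preincubated 10 min with 0–100 μM compound in HEPES pH 7.3 with 5% DMSO, then reacted 30 min at room temperature with biotinylated GST-ATF2 (6 ug/mL). Final ATP was 7 uM for JNK1, 4 uM for JNK2 and 2 uM for JNK3. Phospho-ATF2 was detected by DELFIA europium fluorescence (ex 340, em 615 nm).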

[1] abbreviates: DELFIA assay, 2 nM JNK1, 7 uM ATP, 10 min pre-incubation.
Setting [2] is: DELFIA assay, 2 nM JNK1, 7 uM ATP, 10 min pre-incubation, second table, read-out: JNK 1 IC50.
The mark [3] stands for this setting: DELFIA, biotinylated GST-ATF2 substrate, 10 minute pre-incubation, final ATP 7 uM.

Chain of JNK1 (P45983 whole entry, species assumed): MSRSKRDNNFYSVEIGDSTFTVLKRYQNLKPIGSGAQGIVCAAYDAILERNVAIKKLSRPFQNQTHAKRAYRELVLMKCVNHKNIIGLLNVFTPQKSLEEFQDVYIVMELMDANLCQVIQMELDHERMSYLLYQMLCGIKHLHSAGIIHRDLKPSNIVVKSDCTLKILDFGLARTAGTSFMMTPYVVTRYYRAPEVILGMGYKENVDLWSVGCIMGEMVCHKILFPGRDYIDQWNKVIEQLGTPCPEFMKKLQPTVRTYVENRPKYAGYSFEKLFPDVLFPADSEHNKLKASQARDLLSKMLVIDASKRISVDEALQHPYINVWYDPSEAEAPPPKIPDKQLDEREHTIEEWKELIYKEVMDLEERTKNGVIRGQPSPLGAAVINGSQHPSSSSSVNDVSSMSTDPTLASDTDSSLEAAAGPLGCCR

Take `CC(C)NC(=O)c1cccc(C(=O)NCc2cnn(-c3ccc(S(=O)(=O)N(C)C)c(Cl)c3)c2)n1` [Compound 246]: the IC50 under setting [1] was 4 nM; the IC50 under setting [2] came to 4 nM; the IC50 under setting [3] is 4 to 19 nM and 4 nM and 4 to 97 nM.

Compound `CC(C)NC(=O)c1cccc(C(=O)NCc2cnn(-c3ccc(S(=O)(=O)N4CCN(C(=O)OC(C)(C)C)CC4)c(Cl)c3)c2)n1` [Compound 247] showed an IC50 under setting [3] of 4 to 97 nM. On to `CC(C)NC(=O)c1cccc(C(=O)NCc2cnn(-c3ccc(S(=O)(=O)N4CCNCC4)c(Cl)c3)c2)n1` [Compound 248], for which inhibition under setting [1] was half-maximal at 7 nM (IC50); the IC50 under setting [2] came out at 7 nM; the half-maximal inhibitory concentration (IC50) under setting [3] is 4 to 19 nM and 4 to 97 nM.

`CC(C)NC(=O)c1cccc(C(=O)NCc2cncc(Br)c2)n1` [Compound 254]: under setting [3], the IC50 is 102 to 959 nM. On the same count and under the same terms, to `CC(C)NC(=O)c1cccc(C(=O)NCc2cncc(-c3ccc(S(C)(=O)=O)cc3)c2)n1` [Compound 255] belongs 4 to 97 nM; to `CC(C)NC(=O)c1cccc(C(=O)NCc2cncc(-c3cccc(S(C)(=O)=O)c3)c2)n1` [Compound 256], 4 to 97 nM. The same measure, in the same setting: to `CC(C)NC(=O)c1cccc(C(=O)NCc2cncc(-c3ccc(C#N)cc3)c2)n1` [Compound 257] belongs 4 to 97 nM; to `CC(C)NC(=O)c1cccc(C(=O)NCc2cncc(-c3cccc(C#N)c3)c2)n1` [Compound 258], 4 to 97 nM; to `Nc1nc2ccc(CNC(=O)c3cccc(Cl)n3)cc2s1` [Compound 261], more than 1000 nM. Still for that read-out and setting: to `Nc1nc2ccc(CNC(=O)c3cccc(NCc4ccccc4)n3)cc2s1` [Compound 263] belongs more than 1000 nM. On to `Nc1nc2ccc(CNC(=O)c3cccc(-n4cccn4)n3)cc2s1` [Compound 264], for which, under setting [3], the IC50 fell in the range of 102 to 959 nM. Under setting [3], `COc1cccc(C(=O)NCc2ccc3nc(N)sc3c2)n1` [Compound 267] displayed an IC50 of more than 1000 nM.

With `CS(=O)(=O)c1ccc(CNC(=O)c2cccc(C(=O)NC3CCN(c4ccccn4)CC3)n2)cc1` [Compound 273], the half-inhibitory concentration (IC50) under setting [3] was in the range of 102 to 959 nM. Same read-out and setting: as for `CSc1nccc(N2CCC(NC(=O)c3cccc(C(=O)NCc4ccc(S(C)(=O)=O)cc4)n3)CC2)n1` [Compound 274], the figure is more than 1000 nM; as for `CS(=O)(=O)c1ccc(CNC(=O)c2cccc(C(=O)NC3CCN(c4ccncc4)CC3)n2)cc1` [Compound 275], 1030 to 10000 nM and > 1000 nM; as for `CS(=O)(=O)c1ccc(CNC(=O)c2cccc(C(=O)NC3CCN(c4ccc5ccccc5n4)CC3)n2)cc1` [Compound 276], more than 1000 nM. For `CC(C)NC(=O)c1cccc(-n2cc(I)cn2)n1` [Compound 287], the IC50 under setting [3] was > 1000 nM and 1030 to 10000 nM. On the same count and under the same terms, as for `O=C(Nc1cccnc1)c1cccc(-n2cc(I)cn2)n1` [Compound 288], the figure is > 1000 nM and 1030 to 10000 nM.

`O=C(NCc1cccnc1)c1cccc(-n2cc(I)cn2)n1` [Compound 289] had an IC50 under setting [3] of 102 to 959 nM.

Take `Cc1nc2ccc(CNC(=O)c3cccc(-n4cc(I)cn4)n3)cc2[nH]1` [Compound 290]: under setting [3], the IC50 is 102 to 959 nM. Under setting [3], `O=C(NCc1cnn(-c2ccccc2)c1)c1cccc(-n2cc(I)cn2)n1` [Compound 291] displayed an IC50 of 102 to 959 nM. In the case of `CS(=O)(=O)c1ccc(-n2cc(CNC(=O)c3cccc(-n4cc(I)cn4)n3)cn2)cc1` [Compound 292], the IC50 under setting [3] lay within 4 to 97 nM. Under setting [3], `CS(=O)(=O)c1ccc(-n2cc(CNC(=O)c3cccc(-n4cccn4)n3)cn2)cc1` [Compound 293] displayed an IC50 of 102 to 959 nM.

Consider `CS(=O)(=O)c1ccc(-n2cc(CNC(=O)c3cccc(-n4cc(-c5cccc(F)c5)cn4)n3)cn2)cc1` [Compound 295], for which, under setting [3], the IC50 lay within 102 to 959 nM. The same measure, in the same setting: to `CS(=O)(=O)c1ccc(-n2cc(CNC(=O)c3cccc(-n4cc(-c5ccc(F)cc5)cn4)n3)cn2)cc1` [Compound 296] belongs 102 to 959 nM; to `CS(=O)(=O)c1ccc(-n2cc(CNC(=O)c3cccc(-n4cc(-c5ccccn5)cn4)n3)cn2)cc1` [Compound 297], 4 to 97 nM; to `CC(C)(C)c1nnc(-c2cccc(C(=O)NCc3cnn(-c4ccc(S(C)(=O)=O)cc4)c3)n2)o1` [Compound 302], 102 to 959 nM.

A word on the IC50: it is the concentration that inhibits the measured activity by half.
